Counter-ions that a name gives are not always drawn.
How the values were obtained:
NLRP3 [1] = molecular target: T1, NLRP3 (Homo sapiens, UniProt Q96P20); assay: Human whole blood IL1β release assay (LPS + nigericin, AlphaLisa IL-1β); assay type: cell-based; design: Human whole blood in Li-heparin tubes was obtained from healthy donors from a volunteer donor panel; from tissue; host or cells: human whole blood from healthy donors; conditions: NLRP3 inhibitory activity, 1 μg/ml LPS, 10 μM nigericin, IL-1β release, read-out: HWB IC50
T1 sequence (Q96P20 whole entry): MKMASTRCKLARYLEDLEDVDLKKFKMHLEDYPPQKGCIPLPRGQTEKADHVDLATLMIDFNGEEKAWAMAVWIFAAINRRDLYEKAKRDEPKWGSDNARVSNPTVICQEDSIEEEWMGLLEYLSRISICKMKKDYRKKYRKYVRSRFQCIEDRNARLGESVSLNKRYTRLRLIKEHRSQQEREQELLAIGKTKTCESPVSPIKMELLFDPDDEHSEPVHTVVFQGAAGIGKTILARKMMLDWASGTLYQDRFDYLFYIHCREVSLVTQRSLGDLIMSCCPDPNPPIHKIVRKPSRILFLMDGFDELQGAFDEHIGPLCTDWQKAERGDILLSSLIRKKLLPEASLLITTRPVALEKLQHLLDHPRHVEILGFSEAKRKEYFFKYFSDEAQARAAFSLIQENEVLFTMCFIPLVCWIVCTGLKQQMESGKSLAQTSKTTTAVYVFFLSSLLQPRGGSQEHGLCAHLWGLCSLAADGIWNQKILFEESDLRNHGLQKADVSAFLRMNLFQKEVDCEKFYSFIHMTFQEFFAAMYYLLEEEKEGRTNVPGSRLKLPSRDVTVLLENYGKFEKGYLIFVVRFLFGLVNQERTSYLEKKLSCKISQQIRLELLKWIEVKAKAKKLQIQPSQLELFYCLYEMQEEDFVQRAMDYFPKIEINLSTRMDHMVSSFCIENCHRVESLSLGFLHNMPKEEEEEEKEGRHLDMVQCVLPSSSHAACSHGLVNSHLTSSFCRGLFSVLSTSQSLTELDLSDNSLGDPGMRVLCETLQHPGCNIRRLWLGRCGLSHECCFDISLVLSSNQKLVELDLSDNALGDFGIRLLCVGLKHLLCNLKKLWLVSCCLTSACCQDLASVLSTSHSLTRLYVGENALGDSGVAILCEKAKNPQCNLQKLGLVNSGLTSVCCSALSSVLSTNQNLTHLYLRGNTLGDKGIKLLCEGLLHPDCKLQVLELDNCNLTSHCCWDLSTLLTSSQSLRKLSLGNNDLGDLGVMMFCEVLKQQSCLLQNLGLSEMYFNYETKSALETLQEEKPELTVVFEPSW
Experimental: For systemic delivery, the ability to inhibit NLRP3 when the compounds are present within the bloodstream is of great importance. For this reason, the NLRP3 inhibitory activity of a number of compounds in human whole blood was investigated in accordance with the following protocol.
Human whole blood in Li-heparin tubes was obtained from healthy donors from a volunteer donor panel. • 1. Plate out 80 μl of whole blood containing 1 μg/ml of LPS in 96-well, clear bottom cell culture plate (Corning #3585) • 2. Add 10 μl compound (8 points half-log dilution with 10 μM top dose) or vehicle (DMSO 0.1% FAC) to the appropriate wells • 3. Incubate for 3 hrs at 37° C., 5% CO2 • 4. Add 10 μl Nigericin (Sigma #N7143) (10 μM FAC) to all wells • 5. Incubate for 1 hr at 37° C., 5% CO2 • 6. At the end of the incubation period, spin plates at 300×g for 5 mins to pellet cells and remove 20 μl of supernatant and add to 96-well v-bottom plates for IL-1β analysis (note: these plates containing the supernatants can be stored at −80° C. to be analysed at a later date) • 7. IL-1β was measured according to the manufacturer protocol (Perkin Elmer-AlphaLisa IL-1β Kit AL220F-5000) • 8. IC50 data is fitted to a non-linear regression equation (log inhibitor vs response-variable slope 4-parameters)

NLRP3 [2] = molecular target: T1, NLRP3; assay: THP-1 cells pyroptosis assay (LPS + nigericin, resazurin readout); assay type: cell-based; design: Seed THP-1 cells (25,000 cells/well) containing 1.0 μg/ml LPS in 40 μl of RPMI medium; host or cells: THP-1 cells; conditions: NLRP3 inhibitory activity, 1.0 μg/ml LPS, 5 μM nigericin
Experimental: THP-1 cells (ATCC #TIB-202) were grown in RPMI containing L-glutamine (Gibco #11835) supplemented with 1 mM sodium pyruvate (Sigma #S8636) and penicillin (100 units/ml)/streptomycin (0.1 mg/ml) (Sigma #P4333) in 10% Fetal Bovine Serum (FBS) (Sigma #F0804). The cells were routinely passaged and grown to confluency (˜10^6 cells/ml). On the day of the experiment, THP-1 cells were harvested and resuspended into RPMI medium (without FBS). The cells were then counted and viability (>90%) checked by Trypan blue (Sigma #T8154). Appropriate dilutions were made to give a concentration of 625,000 cells/ml. To this diluted cell solution was added LPS (Sigma #L4524) to give a […] Final Assay Concentration (FAC). 40 μl of the final preparation was aliquoted into each well of a 96-well plate. The plate thus prepared was used for compound screening.
The following method step-by-step assay was followed for compound screening. • 1. Seed THP-1 cells (25,000 cells/well) containing 1.0 μg/ml LPS in 40 μl of RPMI medium (without FBS) in 96-well, black walled, clear bottom cell culture plates coated with poly-D-lysine (VWR #734-0317) • 2. Add 5 μl compound (8 points half-log dilution, with 10 μM top dose) or vehicle (DMSO 0.1% FAC) to the appropriate wells • 3. Incubate for 3 hrs at 37° C. in 5% CO2 • 4. Add 5 μl nigericin (Sigma #N7143) (FAC 5 μM) to all wells • 5. Incubate for 1 hr at 37° C. and 5% CO2 • 6. At the end of the incubation period, spin plates at 300×g for 3 mins and remove supernatant • 7. Then add 50 μl of resazurin (Sigma #R7017) (FAC 100 μM resazurin in RPMI medium without FBS) and incubate plates for a further 1-2 hrs at 37° C. and 5% CO2 • 8. Plates were read in an Envision reader at Ex 560 nm and Em 590 nm • 9. IC50 data is fitted to a non-linear regression equation (log inhibitor vs response-variable slope 4-parameters)

SMILES	IC50 (NLRP3 [1]) [nM]	IC50 (NLRP3 [2]) [nM]
CC(C)c1cc(F)cc(-c2cnn(C)c2)c1NC(=O)NS(=O)(=O)c1cc(C(=O)N(C)C)n(C)n1 [Example 128, 3-(N-((4-Fluoro-2-isopropyl-6-(1-methyl-1H-pyrazol-4-yl)phenyl)carbamoyl)sulfamoyl)-N,N,1-trimethyl-1H-pyrazole-5-carboxamide, Sodium Salt]	< 400	640 to 2560
CC(C)c1cc(F)cc(C2CCOCC2)c1NC(=O)NS(=O)(=O)c1cc(C(=O)N(C)C)n(C)n1 [Example 126, 3-(N-((4-Fluoro-2-isopropyl-6-(tetrahydro-2H-pyran-4-yl)phenyl)carbamoyl)sulfamoyl)-N,N,1-trimethyl-1H-pyrazole-5-carboxamide, Sodium Salt]	400 to 800	640 to 2560
CC(C)c1cc(F)cc(-c2ccccc2)c1NC(=O)NS(=O)(=O)c1cc(CN(C)C)n(C(C)C)n1 [Example 39, 5-((Dimethylamino)methyl)-N-((5-fluoro-3-isopropyl-[1,1′-biphenyl]-2-yl)carbamoyl)-1-isopropyl-1-H-pyrazole-3-sulfonamide]	1600 to 3200	640 to 2560
CN(C)C(c1cc(S(=O)(=O)NC(=O)Nc2c3c(cc4c2CCC4)CCC3)nn1C)C(F)(F)F (stereo not drawn) [Example 95, 5-(˜(Dimethylamino)-2,2,2-trifluoroethyl)-N-((1,2,3,5,6,7-hexahydro-s-indacen-4-yl)carbamoyl)-1-methyl-1H-pyrazole-3-sulfonamide]	800 to 1600	< 40
CNCc1cc(S(=O)(=O)NC(=O)Nc2c(-c3ccnc(OC)c3)ccc3c2CCC3)nn1C1CC1 [Example 178]	< 400	40 to 160
CCC(c1cc(S(=O)(=O)NC(=O)Nc2c(C(C)C)cc(F)cc2C(C)C)nn1C)N(C)C (stereo not drawn) [Example 65, 5-(1-(Dimethylamino)propyl)-N-((4-fluoro-2,6-diisopropylphenyl)carbamoyl)-1-methyl-1H-pyrazole-3-sulfonamide]	< 400	< 40
CC(C)Oc1cc(-c2cc(F)cc(C(C)C)c2NC(=O)NS(=O)(=O)c2cc(C(=O)N(C)C)n(C)n2)ccn1 [Example 176, 3-(N-((4-Fluoro-2-(2-isopropoxypyridin-4-yl)-6-isopropyl-phenyl)carbamoyl)sulfamoyl)-N,N,1-trimethyl-1H-pyrazole-5-carboxamide, sodium salt]	1600 to 3200	160 to 640
COCCN(CCOC)C(=O)c1cc(S(=O)(=O)NC(=O)Nc2c(-c3ccnc(OC)c3)ccc3c2CCC3)nn1C [Example 175, N,N-Bis(2-methoxyethyl)-3-(N-((5-(2-methoxypyridin-4-yl)-2,3-dihydro-1H-inden-4-yl)carbamoyl)sulfamoyl)-1-methyl-1H-pyrazole-5-carboxamide, Sodium Salt]	< 400	160 to 640
Cn1nc(S(=O)(=O)NC(=O)Nc2c3c(cc4c2CCC4)CCC3)cc1CN1CCCC1 [Example 78, N-((1,2,3,5,6,7-Hexahydro-s-indacen-4-yl)carbamoyl)-1-methyl-5-(pyrrolidin-1-ylmethyl)-1H-pyrazole-3-sulfonamide, Sodium Salt]	400 to 800	40 to 160
CN(C)C1(c2cc(S(=O)(=O)NC(=O)Nc3c4c(cc5c3CCC5)CCC4)nn2C)CC1 [Example 58, 5-(1-(Dimethylamino)cyclopropyl)-N-((1,2,3,5,6,7-hexahydro-s-indacen-4-yl)carbamoyl)-1-methyl-1H-pyrazole-3-sulfonamide, Sodium Salt]	800 to 1600	40 to 160
CC(C)n1nc(S(=O)(=O)NC(=O)Nc2c3c(cc4c2CCC4)CCC3)cc1CN(C)CC(F)(F)F [Example 96, N-((1,2,3,5,6,7-Hexahydro-s-indacen-4-yl)carbamoyl)-1-isopropyl-5-((methyl(2,2,2-trifluoroethyl)amino)methyl)-1H-pyrazole-3-sulfonamide]	3200 to 10000	40 to 160
CC(C)c1cc(F)cc(-c2ccnc(C#N)c2)c1NC(=O)NS(=O)(=O)c1cc(CN(C)C)n(C)n1 [Example 36, N-((2-(2-Cyanopyridin-4-yl)-4-fluoro-6-isopropylphenyl)carbamoyl)-5-((dimethylamino)methyl)-1-methyl-1H-pyrazole-3-sulfonamide]	< 400	40 to 160
CC(c1cc(S(=O)(=O)NC(=O)Nc2c3c(cc4c2CCC4)CCC3)nn1C)N(C)C (single isomer, unassigned; enantiomer 2) [Example 70, 5-(1-(Dimethylamino)ethyl)-N-((1,2,3,5,6,7-hexahydro-s-indacen-4-yl)carbamoyl)-1-methyl-1H-pyrazole-3-sulfonamide, Enantiomer 2]	< 400	< 40
CCn1nc(S(=O)(=O)NC(=O)Nc2c(-c3cccnc3)cc(F)c3c2CCC3)cc1CN(C)C [Example 20, 5-((Dimethylamino)methyl)-1-ethyl-N-((7-fluoro-5-(pyridin-3-yl)-2,3-dihydro-1H-inden-4-yl)carbamoyl)-1H-pyrazole-3-sulfonamide]	< 400	< 40
COc1cc(-c2cc(F)cc(C(C)C)c2NC(=O)NS(=O)(=O)c2cc(CN(C)C)n(C)n2)ccn1 [Example 48, 5-((Dimethylamino)methyl)-N-((4-fluoro-2-isopropyl-6-(2-methoxypyridin-4-yl)phenyl)carbamoyl)-1-methyl-1H-pyrazole-3-sulfonamide]	< 400	< 40
CC(C)n1nc(S(=O)(=O)NC(=O)Nc2c3c(cc4c2CCC4)CCC3)cc1CN(C)C [Example 68, 5-((Dimethylamino)methyl)-N-((1,2,3,5,6,7-hexahydro-s-indacen-4-yl)carbamoyl)-1-isopropyl-1H-pyrazole-3-sulfonamide]	400 to 800	< 40
CC(C)c1cc(F)cc(-c2cccnc2)c1NC(=O)NS(=O)(=O)c1cc(CN(C)C)n(C(C)C)n1 [Example 54, 5-((Dimethylamino)methyl)-N-((4-fluoro-2-isopropyl-6-(pyridin-3-yl)phenyl)carbamoyl)-1-isopropyl-1H-pyrazole-3-sulfonamide]	400 to 800	160 to 640
CCn1nc(S(=O)(=O)NC(=O)Nc2c(-c3cccc(C#N)c3)ccc3c2CCC3)cc1CN(C)C [Example 173]	400 to 800	40 to 160
CC(c1cc(S(=O)(=O)NC(=O)Nc2c3c(cc4c2CCC4)CCC3)nn1C1CC1)N(C)C (stereo not drawn) [Example 22, 1-Cyclopropyl-5-(1-(dimethylamino)ethyl)-N-((1,2,3,5,6,7-hexahydro-s-indacen-4-yl)carbamoyl)-1H-pyrazole-3-sulfonamide]	400 to 800	< 40
COc1cc(-c2ccc3c(c2NC(=O)NS(=O)(=O)c2cc(C(=O)N(C)C)n(C)n2)CCC3)ccn1 [Example 177, 3-(N-((5-(2-Methoxypyridin-4-yl)-2,3-dihydro-1H-inden-4-yl)carbamoyl)sulfamoyl)-N,N,1-trimethyl-1H-pyrazole-5-carboxamide, sodium Salt]	< 400	< 40
CC(C)c1cc(F)cc(C(C)C)c1NC(=O)NS(=O)(=O)c1cc(CN2CCCC2)n(C)n1 [Example 81, N-((4-Fluoro-2,6-diisopropylphenyl)carbamoyl)-1-methyl-5-(pyrrolidin-1-ylmethyl)-1H-pyrazole-3-sulfonamide]	< 400	160 to 640

— patent US11542255B2, “Sulfonylureas and sulfonylthioureas as NLRP3 inhibitors” (Inflazome Limited, priority 2017, dated 2023)
